Test results: PubChem BioAssay AID367 (MTDP, 2006)
The source made the active and inactive calls. How the calls were made is not given here.

What follows are compounds tested against Gag-Pol polyprotein (Human immunodeficiency virus type 2 subtype A (isolate ROD)) (UniProt P04584) (assay: Reverse transcriptase ribonuclease H inhibitors, biochemical concentration-response (AID 367)). Settings: HIV-2 RNase H, FRET RNA/DNA substrate cleavage.
Gag-Pol polyprotein (Human immunodeficiency virus type 2 subtype A (isolate ROD)), sequence (P04584 whole entry, looked up): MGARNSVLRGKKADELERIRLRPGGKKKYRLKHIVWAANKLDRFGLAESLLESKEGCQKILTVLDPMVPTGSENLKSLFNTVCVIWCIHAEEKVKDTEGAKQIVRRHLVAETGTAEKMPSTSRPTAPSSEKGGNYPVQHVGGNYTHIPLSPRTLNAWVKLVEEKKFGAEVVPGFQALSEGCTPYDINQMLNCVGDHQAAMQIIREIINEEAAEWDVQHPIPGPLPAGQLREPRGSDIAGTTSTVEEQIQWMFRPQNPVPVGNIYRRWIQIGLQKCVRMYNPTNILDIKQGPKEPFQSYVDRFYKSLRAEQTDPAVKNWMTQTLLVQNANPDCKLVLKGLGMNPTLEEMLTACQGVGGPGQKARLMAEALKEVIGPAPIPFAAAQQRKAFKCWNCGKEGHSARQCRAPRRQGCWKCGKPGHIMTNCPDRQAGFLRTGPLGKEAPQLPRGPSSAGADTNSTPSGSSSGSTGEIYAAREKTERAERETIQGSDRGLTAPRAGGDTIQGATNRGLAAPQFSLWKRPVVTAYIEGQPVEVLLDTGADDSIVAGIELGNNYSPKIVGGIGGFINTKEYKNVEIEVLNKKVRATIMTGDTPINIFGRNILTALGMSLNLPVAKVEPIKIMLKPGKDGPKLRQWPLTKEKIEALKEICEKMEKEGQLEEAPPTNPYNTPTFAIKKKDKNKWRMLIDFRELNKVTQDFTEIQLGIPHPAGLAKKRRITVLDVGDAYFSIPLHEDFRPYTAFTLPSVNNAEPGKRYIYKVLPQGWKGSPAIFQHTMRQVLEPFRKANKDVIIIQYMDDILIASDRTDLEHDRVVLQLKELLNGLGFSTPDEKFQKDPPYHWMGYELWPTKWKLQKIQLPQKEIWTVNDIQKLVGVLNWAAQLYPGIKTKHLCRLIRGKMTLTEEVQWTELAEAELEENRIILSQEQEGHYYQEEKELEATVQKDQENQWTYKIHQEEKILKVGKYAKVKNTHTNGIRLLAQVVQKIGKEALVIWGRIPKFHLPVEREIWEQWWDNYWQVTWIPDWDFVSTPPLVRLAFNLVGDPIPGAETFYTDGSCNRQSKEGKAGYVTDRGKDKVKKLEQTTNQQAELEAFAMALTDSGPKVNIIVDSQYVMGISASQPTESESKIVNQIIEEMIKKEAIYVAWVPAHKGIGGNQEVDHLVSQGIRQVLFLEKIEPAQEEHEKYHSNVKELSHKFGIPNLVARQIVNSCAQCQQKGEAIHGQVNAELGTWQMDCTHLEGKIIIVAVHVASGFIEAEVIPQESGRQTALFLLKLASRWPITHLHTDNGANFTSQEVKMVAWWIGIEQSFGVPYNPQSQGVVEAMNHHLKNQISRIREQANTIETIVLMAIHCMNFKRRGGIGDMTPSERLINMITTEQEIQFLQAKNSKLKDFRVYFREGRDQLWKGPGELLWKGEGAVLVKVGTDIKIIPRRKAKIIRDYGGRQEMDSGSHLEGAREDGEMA
`O=C1NC(=S)N(c2ccccc2F)C(=O)/C1=C/c1ccc(OCc2cccc(C(=O)O)c2)cc1` was tested, and the IC50 was 9 µM. Work on `O=C1NC(=S)N(c2ccccc2F)C(=O)C1=Cc1ccco1` yielded an IC50 of 2.6 µM. Work on `COc1ccc(C2COc3cc(O)c(O)cc3C2)cc1` (stereo not given) yielded an IC50 of 0.5 µM. `O=C(Nc1sc2c(c1C(=O)Nc1cccc3ccccc13)CCCCC2)c1ccccc1F` was tested, and the IC50 was “inactive”. For `C=CC(C)(C)C12CC3C(=O)N/C(=C\c4cnc[nH]4)C(=O)N3C1Nc1ccccc12` (stereo not given), the IC50 was > 100 µM (inactive). In the case of `O=C1NC(=O)/C(=C/c2ccc(-c3ccc(O)c(C(=O)O)c3)o2)S1`, the IC50 is reported as 1 µM. `CC(C)=CCc1ccc(O)c(=O)cc1C(C)C` was tested, and the IC50 was > 100 µM (inactive). In the case of `C=C/C(C)=C/C[C@]1(C)[C@H](C)CC[C@@]23C(=C[C@H](OC(=O)c4ccc(O)c(OC)c4)C[C@@H]12)[C@@H](OC(C)=O)O[C@H]3OC(C)=O`, the IC50 is reported as “inactive”. For `O=C1NC(=S)N(c2ccc(Cl)cc2)C(=O)/C1=C\C=C\c1ccccc1[N+](=O)[O-]`, the IC50 was 8 µM. `Cc1cc(O)c2c(c1O)C(=O)C13C(=C2O)C(=O)C2C(O)C1C1C(O)C3C(=O)C3=C(O)c4c(O)cc(C)c(O)c4C(=O)C321` (stereo not given) was tested, and the IC50 was 8.2 µM. `CCOc1ccc(C2=CC(=O)C=CC2=O)cc1` showed an IC50 of 0.7 µM. Work on `O=C(CSc1nc2ccccc2s1)c1sc2sc3ccccc3[n+]2c1[O-]` yielded an IC50 of 1.9 µM. Compound `Ic1ccc2c(c1)N(c1ccccc1)c1cc(N=c3ccc4nc5ccc(I)cc5n(-c5ccccc5)c-4c3)ccc1N2` has an IC50 of 2 µM. In the case of `Cc1cc(I)c2c(c1)C1C=CCC1C(C(=O)O)N2` (stereo not given), the IC50 is reported as > 100 µM (inactive). With `NC(=O)c1c(NC(=O)COc2ccccc2)sc2c1CCCCC2` the IC50 was 8 µM. `O=C1/C(=C/c2ccc(O)c(O)c2)SC(=S)N1c1ccc(O)cc1` was tested, and the IC50 was 2.6 µM. With `CC(C)c1ccc(O)c(=O)cc1` the IC50 was “inactive”. `Cc1ccc(C(=O)Nc2sc(C)c(C)c2C(N)=O)cc1` showed an IC50 of 0.8 µM. `CCOc1ccc(N2C(=O)/C(=C/c3ccc(I)o3)C(=O)NC2=S)cc1` gave an IC50 of 2 µM. For `Cc1ccc(-c2cc(C(=O)Nc3sc(C(=O)OC(C)C)c(C)c3C(N)=O)c3ccccc3n2)s1`, the IC50 was 1.1 µM. For `Cc1cc(C(=O)O)ccc1-n1c(C)ccc1C`, the IC50 was “inactive”. In the case of `O=C1Nc2ccc(I)cc2C1(O)N1CCOCC1` (stereo not given), the IC50 is reported as 6.3 µM. For `Cc1ccc(S(=O)(=O)N=C2C=CC(=O)C=C2)c(C)c1`, the IC50 was 4.3 µM. With `O=C1NC(=S)N(c2ccc(Cl)cc2)C(=O)/C1=C/c1ccco1` the IC50 was “inactive”. In the case of `COc1ccccc1N=C(NOCc1ccc(Cl)cc1Cl)c1nonc1N`, the IC50 is reported as “inactive”. For `Cc1ccccc1-n1c(O)c(C=C2C=CC=N2)c(=O)[nH]c1=S`, the IC50 was “inactive”. With `CC1=C(C)CC(C(=O)Nc2ccc(N3C(=O)c4ccccc4C3=O)cc2)C(C(=O)O)C1` (stereo not given) the IC50 was > 100 µM (inactive). For `C=Cc1c(C)c2cc3[nH]c(cc4nc(cc5nc(cc1[nH]2)C(C)=C5CCC(=O)O)C(CCC(=O)O)=C4C)c(C)c3C=C`, the IC50 was 1.7 µM. With `Cc1sc(NC(=O)c2ccc(Br)o2)c(C(N)=O)c1C` the IC50 was 7 µM. With `CC1Oc2cc3c(-c4c(O)cc(O)c5c(O)c6c(cc45)OC(C)C(C)C6=O)c(O)cc(O)c3c(O)c2C(=O)C1C` (stereo not given) the IC50 was 8.2 µM. With `Oc1cc(O)c2c(c1)OC(c1ccc(O)c(O)c1)C(OC1(c3cc(O)c(O)c(O)c3)Oc3cc(O)cc(O)c3C(O)C1O)C2` (stereo not given) the IC50 was 1.6 µM. `COC(=O)c1cc2c3c(ccc2[nH]1)N(C(=O)c1cc2c4c(ccc2[nH]1)N(C(=O)c1cc2c5c(ccc2[nH]1)N(C(N)=O)CC5)CC4)CC3` was tested, and the IC50 was 8.1 µM. Work on `O=c1c(O)cccc2cc(O)c(O)c(O)c12` yielded an IC50 of 1.3 µM. `C[C@H]1[C@H](O)c2c(c3c(c4c(-c5ccccc5)cc(=O)oc24)OC(C)(C)C=C3)O[C@@H]1C` was tested, and the IC50 was “inactive”. Work on `O=C1c2ccccc2C(=O)c2c(O)c(O)cc(O)c21` yielded an IC50 of 5 µM. With `COc1ccc(/C=C\C(=O)c2c(-c3ccccc3)c3cc(C)ccc3[nH]c2=O)c(OC)c1` the IC50 was “inactive”. For `CC(C)OC(=O)c1cc(O)c(O)c(O)c1`, the IC50 was 8 µM. In the case of `Cc1cc(-c2ccco2)c(C#N)c(SCC(=O)c2ccc(O)c(O)c2)n1`, the IC50 is reported as 0.8 µM. With `Nc1nc(Sc2ccc([N+](=O)[O-])c3nonc23)c2[nH]cnc2n1` the IC50 was “inactive”. `COc1ccc(N2C(=O)/C(=C\c3cn(CC(=O)Nc4ccccc4)c4ccccc34)C(=O)NC2=S)cc1` showed an IC50 of 2.8 µM. `CCOc1ccc(NC(=O)c2c(NC(=O)c3ccco3)sc3c2CCCCC3)cc1` showed an IC50 of 6 µM. `CN1CC(O)C2=CC(=O)C(=O)C=C21` (stereo not given) was tested, and the IC50 was 4 µM. Compound `Cc1cc(Br)ccc1N1C(=O)/C(=C/c2ccco2)C(=O)NC1=S` has an IC50 of 4 µM. For `O=[N+]([O-])c1c(Cl)cccc1-c1c[nH]cc1Cl`, the IC50 was > 100 µM (inactive). `Cc1sc(NC(=O)c2ccco2)c(C(N)=O)c1C` was tested, and the IC50 was 5 µM. For `FC(F)(F)c1nc2ccc(SSc3ccc4nc(C(F)(F)F)[nH]c4c3)cc2[nH]1`, the IC50 was 0.6 µM. In the case of `O=C1/C(=C/c2ccco2)C(=O)N(c2ccc(Br)cc2)C(=S)N1c1ccccc1`, the IC50 is reported as “inactive”. `COc1cccc2cc(C(N)=O)c(=O)oc12` showed an IC50 of 4.6 µM. In the case of `CC(C)c1ccc(O)c(O)c(=O)c1` (tested in a mixture with another compound), the IC50 is reported as 0.8 µM. Work on `O=C1C=CC(=O)C(c2cc(Cl)ccc2Cl)=C1` yielded an IC50 of 0.1 µM. `COc1ccc2c(c1)N(C(=O)CN1C(=O)c3ccccc3C1=O)C(C)(C)c1ssc(=S)c1-2` gave an IC50 of 3.7 µM. For `Cc1ccc(NC(=O)c2c(NC(=O)c3ccccc3F)sc3c2CCCCC3)cc1`, the IC50 was 5 µM. `Cc1ccc(NC(=O)c2c(NC(=O)C(F)(F)F)sc(-c3ccccc3)c2C)c(C)c1` was tested, and the IC50 was 2 µM. Work on `NCC[Se][Se]CCN` yielded an IC50 of 2 µM. For `Cc1sc(NC(=O)c2ccc3c(c2)OCO3)c(C(N)=O)c1C`, the IC50 was 10 µM.
